# Test results reported in patent publication US20090005407A1, “PARTICULATE (3'-CHLOROBIPHENYL-4-YL)(1-(PYRIMIDIN-2-YL)PIPERIDIN-4-YL)METHANONE AND METHODS OF ITS USE” (priority 2007, published 2009).
# Tests used:
# mice = details: administered to mice; see U.S. Ser. Nos. 11/433,057 and 11/433,626; cited from earlier work
# water solubility = format: physicochemical
smiles,measurement,setting,value
O=C(c1ccc(-c2cccc(Cl)c2)cc1)C1CCN(c2ncccn2)CC1 [(3′-chlorobiphenyl-4-yl)(1-(pyrimidin-2-yl)piperidin-4-yl)methanone],effect on learning and memory,mice,increase learning and memory
same,water solubility,water solubility,poorly water soluble
